Measurements reported in PMC7252524 (Journal of medicinal chemistry, 2019).

Assay: Mouse PK analysis, large intestine
Assay type: in vivo

SMILES | Large Intestinal PK AUClast (ip, 10 mg/kg) | Large Intestinal PK AUClast (iv, 10 mg/kg) | Large Intestinal PK AUClast (iv, 5 mg/kg) | Large Intestinal PK AUClast (po, 20 mg/kg)
COc1ccc(S(=O)(=O)N2CCC(N3CCC(C)CC3)CC2)cc1 [compound 6, 1’-((4-Methoxyphenyl)sulfonyl)-4-methyl-1,4’-bipiperidine] | 737,709 ng·min/g | – | – | –
CC1CCN(C2CCN(S(=O)(=O)c3ccc(Cl)cc3)CC2)CC1 [compound 16, 1’-((4-Chlorophenyl)sulfonyl)-4-methyl-1,4’-bipiperidine] | – | 262,874 ng·min/g | – | –
CC1CCN(C2CCN(S(=O)(=O)c3ccc(OC(F)F)cc3)CC2)CC1 [compound 22, 1’-((4-(Difluoromethoxy)phenyl)sulfonyl)-4-methyl-1,4’-bipiperidine] | 790,425 ng·min/g | – | 511,878 ng·min/g | 890,969 ng·min/g
C#CCC1CCN(C2CCN(S(=O)(=O)c3ccc(Br)cc3)CC2)CC1 [compound 92, 1’-((4-Bromophenyl)sulfonyl)-4-(prop-2-yn-1-yl)-1,4’-bipiperidine] | 633,289 ng·min/g | 559,037 ng·min/g | – | –
